# Assay results from US20240158446A1, “CYCLIC COMPOUND HAVING SELECTIVE INHIBITORY ACTION ON KRAS OVER HRAS AND NRAS” (CHUGAI SEIYAKU KABUSHIKI KAISHA, priority 2021, published 2024).
# pKd: −log10 of the molar value. Where two headings read alike, the source gives them in different places. *1 amine or outer side, *2 acyl side, *3 side chain or, on linkers, in order; H or OH if unused. Where a SMILES comes first, the peptide text is derived from it. Bridges are numbered along the chain shown (N, C = ends). [ ]: non-standard residue; d: D form. The star is where a group is joined. hPhe(3,5-F2-4-CF3) = N[C@@H](CCc1cc(F)c(C(F)(F)F)c(F)c1)C(=O)O; hPhe(3-Cl-4-CF3) = N[C@@H](CCc1ccc(C(F)(F)F)c(Cl)c1)C(=O)O; X27 = O=C([C@H](Cc1ccc(C(F)(F)F)cc1)N(CC1CC1)[*:1])[*:2]; NPrPhe(4-CF3) = CCCN[C@@H](Cc1ccc(C(F)(F)F)cc1)C(=O)O; X41 = Cc1ccc(C[C@@H](C(=O)[*:2])N(CC2CCCCC2)[*:1])cc1; NMePhe(4-Me) = CN[C@@H](Cc1ccc(C)cc1)C(=O)O; X7 = CCN([C@H](C(=O)[*:2])C1CCCC1)[*:1]; NMeGly(cPent) = CN[C@H](C(=O)O)C1CCCC1; NMeD = CN[C@@H](CC(=O)O)C(=O)O; NMeL = CN[C@@H](CC(C)C)C(=O)O; NMeNva = CCC[C@H](NC)C(=O)O; αMeS = C[C@](N)(CO)C(=O)O; Morpholide = C1CN(*)CCO1; NMeAib = CNC(C)(C)C(=O)O; Nle = CCCC[C@H](N)C(=O)O; Piperidide = C1CCN(*)CC1; Ac5c = NC1(C(=O)O)CCCC1; Aze = O=C(O)[C@@H]1CCN1; Ac4c = NC1(C(=O)O)CCC1; Sar = CNCC(=O)O; tBu = CC(C)(C)*
# How the values were obtained:
# [1] = target: GDP-bound KRAS wild-type protein (Homo sapiens, UniProt P01116); assay: Binding to KRAS by surface plasmon resonance (SPR), Single Cycle Kinetics; settings: GDP-bound KRAS wild-type protein, read-out: KRAS KD
# [2] = target: GDP-bound NRAS wild-type protein (Homo sapiens, UniProt P01111); assay: Binding to NRAS by surface plasmon resonance (SPR), Single Cycle Kinetics; settings: for NRAS/KRAS (ratio of KD value for NRAS to KD value for KRAS) / NRAS/KRAS (ratio of KD value with respect to NRAS to KD value with respect to KRAS): SPR, GDP-bound NRAS wild-type protein vs GDP-bound KRAS wild-type protein
# [3] = target: GDP-bound HRAS wild-type protein (Homo sapiens, UniProt P01112); assay: Binding to HRAS by surface plasmon resonance (SPR), Single Cycle Kinetics; settings: for HRAS/KRAS (ratio of KD value for HRAS to KD value for KRAS) / HRAS/KRAS (ratio of KD value with respect to HRAS to KD value with respect to KRAS): SPR, GDP-bound HRAS wild-type protein vs GDP-bound KRAS wild-type protein
# [4] = SPR Single Cycle Kinetics, 1:1 binding model
# Sequence of GDP-bound HRAS wild-type protein (P01112 whole entry): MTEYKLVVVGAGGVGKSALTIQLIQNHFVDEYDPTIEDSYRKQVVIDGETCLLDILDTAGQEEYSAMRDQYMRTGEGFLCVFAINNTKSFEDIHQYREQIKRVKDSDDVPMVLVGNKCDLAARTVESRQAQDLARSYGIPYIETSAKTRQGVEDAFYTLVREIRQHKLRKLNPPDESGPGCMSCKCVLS
# Sequence of GDP-bound NRAS wild-type protein (P01111 whole entry): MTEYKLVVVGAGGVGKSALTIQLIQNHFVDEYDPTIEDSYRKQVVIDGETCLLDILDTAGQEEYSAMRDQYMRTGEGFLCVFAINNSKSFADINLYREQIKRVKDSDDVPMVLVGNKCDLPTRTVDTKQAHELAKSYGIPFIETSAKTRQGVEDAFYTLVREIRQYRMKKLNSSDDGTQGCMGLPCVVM
# Sequence of GDP-bound KRAS wild-type protein (P01116 whole entry): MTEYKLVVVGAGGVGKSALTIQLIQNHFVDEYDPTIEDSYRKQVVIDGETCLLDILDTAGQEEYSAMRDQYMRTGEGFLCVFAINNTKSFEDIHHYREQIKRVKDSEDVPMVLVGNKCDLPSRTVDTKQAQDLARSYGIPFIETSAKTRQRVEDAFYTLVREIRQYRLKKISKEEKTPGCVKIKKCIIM
"pKd [1, 4]",Structure (SMILES),NRAS/KRAS (ratio of KD value for NRAS to KD value for KRAS) [2],HRAS/KRAS (ratio of KD value for HRAS to KD value for KRAS) [3],NRAS/KRAS (ratio of KD value with respect to NRAS to KD value with respect to KRAS) [2],HRAS/KRAS (ratio of KD value with respect to HRAS to KD value with respect to KRAS) [3],other results
8.03,CC[C@H](C)[C@@H]1NC(=O)[C@H](CC(C)C)N(C)C(=O)C[C@@H](C(=O)N2CCOCC2)N(C)C(=O)[C@H](C2CCCC2)N(C)C(=O)C2(CCCC2)NC(=O)[C@@H]2CCCN2C(=O)[C@H](CCc2ccc(C(F)(F)F)c(Cl)c2)NC(=O)CN(C)C(=O)[C@H](Cc2ccc(C)cc2)N(CC2CCCCC2)C(=O)CN(C)C(=O)CN(C)C1=O [PP0097] ([NMeL]I[Sar][Sar][X41][Sar][hPhe(3-Cl-4-CF3)]P[Ac5c][NMeGly(cPent)][NMeD]-Morpholide; lactam N-11),C (A compound having a KD ratio of 0.1 or more and less than 3 is denoted as C),C (A compound having a KD ratio of 0.1 or more and less than 3 is denoted as C),–,–,–
7.77,CC[C@H](C)[C@@H]1NC(=O)[C@H](CC(C)C)N(C)C(=O)C[C@@H](C(=O)N2CCOCC2)N(C)C(=O)[C@H](C2CCCC2)NC(=O)C2(CCCC2)NC(=O)[C@@H]2CCCN2C(=O)[C@H](CCc2cc(F)c(C(F)(F)F)c(F)c2)NC(=O)CN(C)C(=O)[C@H](Cc2ccc(C(F)(F)F)cc2)N2CCCC[C@@H](C2=O)N(C)C(=O)CN(C)C1=O [PP0540],–,–,B (a compound having 3 or more and less than 10 is denoted as B),B (a compound having 3 or more and less than 10 is denoted as B),–
8.23,CC[C@H](C)[C@@H]1NC(=O)[C@H](CC(C)C)N(C)C(=O)C[C@@H](C(=O)N2CCOCC2)N(C)C(=O)[C@H](C2CCCC2)N(C)C(=O)C2(CCCC2)NC(=O)[C@@H]2CCCN2C(=O)[C@H](CCc2ccc(C(F)(F)F)c(Cl)c2)NC(=O)CN(C)C(=O)[C@H](C2CCCC2)N(CC)C(=O)CN(C)C(=O)CN(C)C1=O [PP0024] ([NMeL]I[Sar][Sar][X7][Sar][hPhe(3-Cl-4-CF3)]P[Ac5c][NMeGly(cPent)][NMeD]-Morpholide; lactam N-11),B (a compound having 3 or more and less than 10 is denoted as B),C (A compound having a KD ratio of 0.1 or more and less than 3 is denoted as C),–,–,–
9.49,CC[C@H](C)[C@@H]1NC(=O)[C@H](CC(C)C)N(C)C(=O)C[C@@H](C(=O)N2CCOCC2)N(C)C(=O)[C@H](C2CCCC2)N(C)C(=O)C2(CCCC2)NC(=O)[C@@H]2CCCN2C(=O)[C@H](CCc2ccc(C(F)(F)F)c(Cl)c2)NC(=O)CN(C)C(=O)[C@H](Cc2ccc(C(F)(F)F)cc2)N(CC2CC2)C(=O)CN(C)C(=O)CN(C)C1=O [PP0122] ([NMeL]I[Sar][Sar][X27][Sar][hPhe(3-Cl-4-CF3)]P[Ac5c][NMeGly(cPent)][NMeD]-Morpholide; lactam N-11),C (A compound having a KD ratio of 0.1 or more and less than 3 is denoted as C),C (A compound having a KD ratio of 0.1 or more and less than 3 is denoted as C),–,–,–
9.66,CCC[C@H]1C(=O)N[C@@H]([C@@H](C)CC)C(=O)N(C)CC(=O)N(C)CC(=O)N(CCC)[C@@H](Cc2ccc(C(F)(F)F)cc2)C(=O)N(C)CC(=O)N[C@@H](CCc2ccc(C(F)(F)F)c(Cl)c2)C(=O)N2CCC[C@H]2C(=O)NC2(CCCC2)C(=O)N(C)[C@@H](C2CCCC2)C(=O)N(C)[C@H](C(=O)N2CCOCC2)CC(=O)N1C [PP0189] ([NMeNva]I[Sar][Sar][NPrPhe(4-CF3)][Sar][hPhe(3-Cl-4-CF3)]P[Ac5c][NMeGly(cPent)][NMeD]-Morpholide; lactam N-11),B (a compound having 3 or more and less than 10 is denoted as B),C (A compound having a KD ratio of 0.1 or more and less than 3 is denoted as C),–,–,–
10.37,CCCN1C(=O)CN(C)C(=O)CN(C)C(=O)[C@H]([C@@H](C)CC)NC(=O)[C@H](CC(C)C)N(C)C(=O)C[C@@H](C(=O)N(C)C)N(C)C(=O)[C@H](C2CCCC2)N(C)C(=O)C2(CCC2)NC(=O)[C@@H]2CCCN2C(=O)[C@H](CCc2ccc(C(F)(F)F)c(Cl)c2)NC(=O)CN(C)C(=O)[C@@H]1Cc1ccc(C(F)(F)F)cc1 [PP0412] ([NMeL]I[Sar][Sar][NPrPhe(4-CF3)][Sar][hPhe(3-Cl-4-CF3)]P[Ac4c][NMeGly(cPent)][NMeD]-NMe2; lactam N-11),–,–,B (a compound having 3 or more and less than 10 is denoted as B),C (A compound having a KD ratio of 0.1 or more and less than 3 is denoted as C),–

# The next lines start with the molecule.
Structure (SMILES),"pKd [1, 4]",NRAS/KRAS (ratio of KD value for NRAS to KD value for KRAS) [2],HRAS/KRAS (ratio of KD value for HRAS to KD value for KRAS) [3],NRAS/KRAS (ratio of KD value with respect to NRAS to KD value with respect to KRAS) [2],HRAS/KRAS (ratio of KD value with respect to HRAS to KD value with respect to KRAS) [3],other results
CCC[C@H]1C(=O)N[C@@H]([C@@H](C)CC)C(=O)N(C)CC(=O)N(C)[C@H]2C/C=C\CCN(C2=O)[C@@H](Cc2ccc(C)cc2)C(=O)N(C)CC(=O)N[C@@H](CCc2ccc(CC)c(Cl)c2)C(=O)N2C[C@H](OCC)C[C@H]2C(=O)NC2(CC(C)(C)C2)C(=O)N(C)[C@@H](C2CCCC2)C(=O)N(C)[C@H](C(=O)N(C)C)CC(=O)N1C [PP2778],9.21,–,–,–,–,"NRAS/KRAS (ratio of KD value with respect to GDP-bound NRAS wild-type protein to KD value with respect to KRAS) ([2]; SPR KD ratio NRAS/KRAS, class symbols): A (a compound having 10 or more and less than 20 is denoted as A); HRAS/KRAS (ratio of KD value with respect to GDP-bound HRAS wild-type protein to KD value with respect to KRAS) ([3]; SPR KD ratio HRAS/KRAS, class symbols): A (a compound having 10 or more and less than 20 is denoted as A)"
CCCC[C@@H]1NC(=O)[C@H](CCc2ccc(C(F)(F)F)c(Cl)c2)NC(=O)CN(C)C(=O)[C@H](Cc2ccc(C)cc2)N(C)C(=O)CN(C)C(=O)CN(C)C(=O)[C@H]([C@@H](C)CC)NC(=O)[C@H](CC(C)C)N(C)C(=O)C[C@@H](C(=O)N2CCCCC2)N(C)C(=O)[C@H](CC(C)C)NC(=O)C(C)(C)N(C)C1=O [PP0049] ([NMeL]I[Sar][Sar][NMePhe(4-Me)][Sar][hPhe(3-Cl-4-CF3)][Nle][NMeAib]L[NMeD]-Piperidide; lactam N-11),8.20,C (A compound having a KD ratio of 0.1 or more and less than 3 is denoted as C),C (A compound having a KD ratio of 0.1 or more and less than 3 is denoted as C),–,–,–
CCO[C@@H]1C[C@H]2C(=O)NC3(CCC3)C(=O)N(C)[C@@H](C3CCCC3)C(=O)N(C)[C@H](C3CCCCC3)CC(=O)N(C)[C@@H](COC)C(=O)N[C@@H]([C@@H](C)CC)C(=O)N(C)CC(=O)N(C)[C@H]3C/C=C\CCN(C3=O)[C@@H](Cc3ccc(C(F)(F)F)cc3)C(=O)N(C)CC(=O)N[C@@H](CCc3cc(F)c(C(F)(F)F)c(F)c3)C(=O)N2C1 [PP1584],–,–,–,–,–,"pKd ([1]; SPR, Single Cycle Kinetics, 1:1 binding model): 9.25; NRAS/KRAS (ratio of KD value for NRAS to KD value for KRAS) ([2]; KD ratio class): B (a compound having 3 or more and less than 10 is denoted as B); HRAS/KRAS (ratio of KD value for HRAS to KD value for KRAS) ([3]; KD ratio class): B (a compound having 3 or more and less than 10 is denoted as B)"
CCO[C@@H]1C[C@H]2C(=O)N(C)C3(CCC3)C(=O)N(C)[C@@H](C(CC)CC)C(=O)N(C)[C@H](C(=O)N(C)C)CC(=O)N(C)[C@@H](COC)C(=O)N[C@@H]([C@@H](C)CC)C(=O)N(C3CC3)CC(=O)N(C)[C@H]3C/C=C\CCN(C3=O)[C@@H](CC3CCCCC3)C(=O)N(C)CC(=O)N[C@@H](CCc3ccc(C(F)(F)F)c(OC)c3)C(=O)N2C1 [PP2339],–,A (a compound having 10 or more and less than 20 is denoted as A),A (a compound having 10 or more and less than 20 is denoted as A),–,–,"pKd ([1]; SPR, Single Cycle Kinetics): 8.59"
"CCCN1C(=O)[C@@H]2CCN2C(=O)CN(C)C(=O)[C@H]([C@@H](C)CC)NC(=O)[C@H](CC(C)C)N(C)C(=O)C[C@@H](C(=O)N2CCOCC2)N(C)C(=O)[C@H](C2CCCC2)N(C)C(=O)[C@](C)(COC(C)(C)C)NC(=O)[C@@H]2CCCN2C(=O)[C@H](CCc2cc(F)c(C(F)(F)F)c(F)c2)NC(=O)CN(C)C(=O)[C@@H]1Cc1ccc(C(F)(F)F)cc1 [PP0800] ([NMeL]I[Sar][Aze][NPrPhe(4-CF3)][Sar][hPhe(3,5-F2-4-CF3)]P[αMeS](tBu)[NMeGly(cPent)][NMeD]-Morpholide; lactam N-11)",8.57,–,–,C (A compound having a KD ratio of 0.1 or more and less than 3 is denoted as C),B (a compound having 3 or more and less than 10 is denoted as B),–
CCCOC[C@H]1C(=O)N[C@@H]([C@@H](C)CC)C(=O)N(C2CC2)CC(=O)N(C)[C@H]2C/C=C\CCN(C2=O)[C@@H](Cc2ccc(C)cc2)C(=O)N(C)CC(=O)N[C@@H](CCc2ccc(C(F)(F)F)c(OC)c2)C(=O)N2C[C@H](OCC)C[C@H]2C(=O)N(C)C2(CCC2)C(=O)N(C)[C@@H](C(CC)CC)C(=O)N(C)[C@H](C(=O)N(C)C)CC(=O)N1C [PP2327],–,A (a compound having 10 or more and less than 20 is denoted as A),A (a compound having 10 or more and less than 20 is denoted as A),–,–,"pKd ([1]; SPR, Single Cycle Kinetics): 9.30"
CCO[C@@H]1C[C@H]2C(=O)NC3(CCC3)C(=O)N(C)[C@@H](C3CCCC3)C(=O)N(C)[C@H](C(=O)N3CCOCC3)CC(=O)N(C)C[C@@H](C)C(=O)N[C@@H]([C@@H](C)CC)C(=O)N(C)CC(=O)N(C)[C@H]3CCCCN(C3=O)[C@@H](Cc3ccc(C(F)(F)F)cc3)C(=O)N(C)CC(=O)N[C@@H](CCc3cc(F)c(C(F)(F)F)c(F)c3)C(=O)N2C1 [PP0721],7.96,–,–,B (a compound having 3 or more and less than 10 is denoted as B),B (a compound having 3 or more and less than 10 is denoted as B),–
